Reference: article PMC6764212 (ACS Central Science, 2019)
Where two headings read alike, the source gives them in different places.

Assays:
GABAAR(α1/β3/γ2) [1] = molecular target: T1, GABAAR(α1/β3/γ2) (Homo sapiens, UniProt P14867+P18507+P28472); experiment: Ligand detection / high-throughput screening by fluorescence change ratio; assay type: binding; conditions: for assignment of hit compound from the screening: third and fourth screening, LOPAC1280, 10 μM
GABAAR(α1/β3/γ2) [2] = molecular target: T1, GABAAR(α1/β3/γ2); experiment: Dissociation constant of PAM at fixed 10 μM GABA; assay type: binding
GABAAR(α1/β3/γ2) [3] = molecular target: T1, GABAAR(α1/β3/γ2); experiment: Whole-cell patch-clamp electrophysiology in GABAAR-transfected HEK293T cells; assay type: cell-based; conditions: for chloride currents in the absence of GABA at high concentrations: 100 μM for CGP-7930 and CGP-13501, 25 μM for vinpocetine, Retro-2 and YC-1
GABAARs = conditions: cited from earlier work
GABAAR(α1/β3/γ2) [4] = molecular target: T1, GABAAR(α1/β3/γ2); assay type: binding

Compound	assignment of hit compound from the screening (GABAAR(α1/β3/γ2) [1])	Kd (GABAAR(α1/β3/γ2) [2]) [nM]	fluorescence change (ΔF/F0) upon ligand addition in the absence of GABA (GABAAR(α1/β3/γ2) [1])	fluorescence change (ΔF/F0) upon ligand addition in the presence of GABA (GABAAR(α1/β3/γ2) [1])	also measured
CC1=C(C)C(=O)C(CCCCC#CCCCC#CCO)=C(C)C1=O [AA-861]	PAM candidates	–	–	–	–
CC(C)(CO)Cc1cc(C(C)(C)C)c(O)c(C(C)(C)C)c1 [CGP-7930, 2,6-Di-tert-butyl-4-(3-hydroxy-2,2-dimethyl-propyl)-phenol]	PAM candidates	13100	–	–	chloride currents in the absence of GABA at high concentrations (GABAAR(α1/β3/γ2) [3]; no GABA): increased the chloride currents
CCOC(=O)c1cncn1[C@H](C)c1ccccc1 [etomidate]	–	–	negligible fluorescence change	pronounced fluorescent decrease	Kd (GABAARs; read-out: Kd of etomidate previously reported using live cells): 1800 nM
COc1ccc(-c2ccc(=N)n(CCCC(=O)O)n2)cc1 [gabazine]	potential orthosteric ligands	–	significant decrease	significant decrease	Kd (GABAAR(α1/β3/γ2) [4]): 214 nM; concentration at which the fluorescence decrease reached saturation (GABAAR(α1/β3/γ2) [4]; 100 nM Gzn-OG, CLSM image): approximately 10 μM
COc1ccc2c(c1OC)C(=O)O[C@@H]2[C@H]1c2cc3c(cc2CCN1C)OCO3 [hydrastine]	potential orthosteric ligands	–	–	–	–
CC(C)c1cccc(C(C)C)c1O [propofol]	–	5600	negligible fluorescence change	pronounced fluorescent decrease	Kd (GABAARs; read-out: Kd of propofol previously reported using live cells): 1900 nM
CCOC(=O)C1=C[C@]2(CC)CCCN3CCc4c(n1c1ccccc41)[C@@H]32 [vinpocetine]	PAM candidates	1400	–	–	chloride currents in the absence of GABA at high concentrations (GABAAR(α1/β3/γ2) [3]; no GABA): increased the chloride currents; effect on GABA-induced chloride currents (GABAAR(α1/β3/γ2) [3]; [compound] = 3 μM, [GABA] = 30 μM, −60 mV): reversibly enhanced; direct activation of GABAARs at low concentrations (GABAAR(α1/β3/γ2) [3]; low concentrations (3 μM), no GABA): did not induce any direct activation of GABAARs
Cc1ccc(-c2nc3ccc(C)cn3c2CC(=O)N(C)C)cc1 [zolpidem]	–	–	negligible fluorescence change	pronounced fluorescent decrease	–
picrotoxin	–	–	no effect on the fluorescence intensity	no effect on the fluorescence intensity	–
